Reference: ChEMBL document CHEMBL3596185, “Combining Mass Spectrometric Metabolic Profiling with Genomic Analysis: A Powerful Approach for Discovering Natural Products from Cyanobacteria” (J Nat Prod, 2015)
pKi: −log10 of the molar value.

Key:
Homo sapiens = organism: Homo sapiens; assay: Selectivity ratio of Ki for human recombinant CB2 receptor to Ki for human recombinant CB1 receptor
Cannabinoid receptor 1 = Cannabinoid receptor 1 (Homo sapiens, UniProt P21554); assay: Displacement of [3H]-CP55940 from human recombinant CB1 receptor expressed in HEK293 cells after 90 mins by scintillation counting analysis; format: cell-based
Cannabinoid receptor 1, sequence (P21554 whole entry): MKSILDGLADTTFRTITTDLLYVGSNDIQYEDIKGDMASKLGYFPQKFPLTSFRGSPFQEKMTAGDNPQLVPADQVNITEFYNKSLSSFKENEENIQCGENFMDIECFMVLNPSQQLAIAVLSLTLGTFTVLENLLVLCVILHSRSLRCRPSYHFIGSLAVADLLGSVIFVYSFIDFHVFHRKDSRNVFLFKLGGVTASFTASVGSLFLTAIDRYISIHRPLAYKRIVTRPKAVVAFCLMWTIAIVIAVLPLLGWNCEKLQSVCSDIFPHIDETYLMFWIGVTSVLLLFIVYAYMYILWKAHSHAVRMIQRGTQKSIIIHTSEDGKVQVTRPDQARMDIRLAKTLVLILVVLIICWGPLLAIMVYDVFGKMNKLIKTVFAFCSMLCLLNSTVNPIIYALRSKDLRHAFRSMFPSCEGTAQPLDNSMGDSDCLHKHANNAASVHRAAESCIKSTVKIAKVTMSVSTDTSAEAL

Cannabinoid receptor 2 = Cannabinoid receptor 2 (Homo sapiens, UniProt P34972); assay: Displacement of [3H]-CP55940 from human recombinant CB2 receptor expressed in HEK293 cells after 90 mins by scintillation counting analysis; format: cell-based
Cannabinoid receptor 2, sequence (P34972 whole entry): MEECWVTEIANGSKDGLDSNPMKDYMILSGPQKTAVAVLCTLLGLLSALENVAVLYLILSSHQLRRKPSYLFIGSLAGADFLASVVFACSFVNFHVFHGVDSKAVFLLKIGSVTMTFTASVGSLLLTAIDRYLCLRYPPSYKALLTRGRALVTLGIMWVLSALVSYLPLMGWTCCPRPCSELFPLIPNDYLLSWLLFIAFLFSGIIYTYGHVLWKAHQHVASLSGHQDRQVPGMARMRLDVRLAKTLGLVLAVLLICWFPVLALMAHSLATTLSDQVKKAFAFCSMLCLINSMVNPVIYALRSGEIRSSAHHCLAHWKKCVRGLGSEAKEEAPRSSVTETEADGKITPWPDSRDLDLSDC

Row | SMILES | Ratio Ki (Homo sapiens) | pKi (Cannabinoid receptor 1) | pKi (Cannabinoid receptor 2)
1 | COC[C@@H](COC(C)=O)N(C)C(=O)CC/C=C/CCCCC(Cl)CCCCCCCl (some centres not stated) | 2 | 6.23 | 5.99
2 | C=CCCC/C=C/C=C(\C)CCCC/C=C/CC/C=C\C(=O)NC(CO)CO | – | 6.33 | –
3 | COC[C@@H](COC(C)=O)N(C)C(=O)CC/C=C/CCCCC(Cl)CCCCCC(Cl)Cl (some centres not stated) | 2 | 6.39 | 6.07
